The test system of data set [1] is D. antarctica explants. Kind of data set: Effect of growth regulators on D. antarctica's morphogenic response and biomass production in bioreactors (SIT). The data set is classed as in vivo, Deschampsia antarctica. To be noted: for type of morphogenic response (roots / shoots): AIB with BAP or alone, BAP alone or ratio favoring BAP; for reproduction rate / organogenic response: SIT method (FIG. 7); for survival of explants compared with the control treatment: growth regulators in the culture medium, bioreactors (FIG. 6); for biomass production: treatments supplemented with growth regulators (FIG. 9). An excerpt:
In order to determine the appropriate composition of growth regulators for explant propagation and to establish the differences in the physical state of the liquid culture medium compared to the semisolid medium, a comparative study was done on the effect of growth regulators on the culture medium using the SIT method and the conventional propagation method, SSS. To determine the growth regulators' effect on D. antarctica's morphogenic response and biomass formation, a study was done on the effect of combining the cytokinin 6-benzylaminopurine (6-BAP) (0.0; 0.5; 1.0; and 3.0 mgL-1) with the auxin indolbutyric acid (AIB) (0.0; 0.1; 0.25; and 0.5 mgL^−1). Likewise, a study was done of the effect of a set concentration of gibberellic acid (3 mgL-1) combined with the auxins and cytokinins and their isolated effect in the culture medium. Gibberellic acid is associated with the elongation of tissues, and it could play a significant role in biomass growth.
For each bioreactor, 50 to 60 explants with the phenotype characteristics indicated in the osmotic agent test were used in 1000 ml of nutritive medium for each condition, keeping an initial treatment weight of 2 grams. For the SSS method, 25 explants were used in Petri dishes with 40 ml of a medium gelled with agar (Gelzan′) at a rate of 2.5 gL^−1.
A 12-hour immersion frequency was used, with immersion times of 3 minutes and aeration times of 5 minutes.
For this test, the total weight of inoculated biomass was adjusted at 2.0 g per bioreactor. Therefore, the number of plants per bioreactor varied, and the distribution of weight and size during inoculation was random. The experimental unit was the explant.
The effect of the growth regulators was evaluated with the following variables: Increase in fresh weight (FW) per treatment, increase in fresh weight/explant, reproduction rate, survival of explants, and degree of oxidation; all of the same criteria used in the test with osmotic agents.
A sample of 25 explants was taken for each treatment in order to measure the different variables.

For data set [2], the system named is D. antarctica explants. Kind of data set: Effect of osmoregulating agents on D. antarctica explants cultivated in temporary immersion bioreactors. The data set is classed as in vivo. The following applies: for fresh weight: glucose 5 gL−1 and 20 gL−1, sodium chloride 5 gL−1 (FIG. 5); for degree of oxidation (scale of Table 1): in vivo. An excerpt:
The Deschampsia antarctica plants were reproduced in bioreactors with a liquid culture medium. The nutritive growth conditions were formulated using the inorganic salts proposed by (Murashige, 1973) (MS), supplemented with saccharose 30 gL^−1. In order to determine the conditions needed to obtain high growth and morphophysiological development rates for the tissues, an evaluation was done of the immersion frequency conditions and the addition of osmotic and growth regulating agents.
The regulation of the culture medium's hydric potential determines the quality of the morphogenic response of the plants being cultivated in vitro, especially in systems using liquid culture media (Hua et at, 2010; Stanly et al., 2010). The experiment consisted of evaluating the effect of osmoregulating agents at different concentrations [mannitol (10 and 20 gL-1), glucose (5 and 20 gL-1), polyethylene glycol (5 and 10 gL^−1), and NaCl (5, 10, and 20 gL-1)] on the morphogenic response and biomass production of D. antarctica.
In each bioreactor, 100 plants from the semisolid culture (SSS) that were more than 2 cm tall, with well-developed, expanded leaves, were inoculated in triplicate. The dead leaves and oxidized tissue that grows around the crown of the plants were removed. The bioreactors' initial volume was adjusted to 1000 ml per cultivation jar. A 12-hour immersion frequency was used, with an immersion time of 300 seconds and an aeration time of 60 minutes.
The average initial weight of the explants in each treatment was taken. The repetitions were distributed randomly in the culture trays.
The effect of the osmoregulators was evaluated with the following variables: Increase in fresh weight (FW) per treatment, increase in fresh weight per explant, multiplication rate, explant survival rate, and degree of oxidation.
To calculate survival, live explants were assigned a value of 1, while dead explants were assigned a value of 0. The data was entered into a double-entry matrix where the osmoregulator-type factor is compared to the survival variable. A scale of the explants' damage from phenolization was developed to calculate the degree of oxidation, and is described in Table 1.
The degree of oxidation was calculated using the Townsend and Neuberger formula (1943), which considers the frequency and intensity with which the explant damage occurs, using the equation:
[formula] Where: • P=weighted degree of severity of oxidation • n=number of explants for each category in the scale • v=numerical value of each category • CM=largest category • N=total number of explants in the sample
The percentage of explants oxidized in treatment was also calculated, using the equation:
[formula] Where: • % O=percentage of explants oxidized in each treatment • EO=number of oxidized explants in the sample • ET=total number of explants evaluated in the sample
To determine the average increase in fresh weight (IFW) in each treatment, the initial weight of the inoculated explants in each bioreactor was taken (including an experimental unit) and then averaged. The fresh weight data was collected at the end of each repetition in each treatment. The increase in fresh weight was calculated using the equation: IFW=FWf−FWo Equation 3 Where: • IFW=average fresh weight increase in each treatment • FWf=average final fresh weight of the biomass in each treatment • FWo=average initial fresh weight of the biomass in each treatment
To determine the average fresh weight increase per explant (IFWe) for each treatment, each explant was measured at the beginning and end of the test for each repetition, and the averages were calculated. The fresh weight increase was calculated using the equation: IFWe=FWef−FWeo Equation 4 Where: • IFWe=average fresh weight increase per explant • FWef=average final fresh weight of the biomass in each bioreactor • FWeo=average initial fresh weight of the biomass in each bioreactor. […]

In data set [3] the test system is D. antarctica explants. The data set is described as above. The data set is classed as in vivo. The following applies: glucose 5 gL−1; mannitol 5 gL−1; PEG 5 gL−1 and 20 gL−1 (FIG. 4).

For `O=C(O)CCCc1c[nH]c2ccccc12` [AIB, indolbutyric acid], in data set [1], the “type of morphogenic response (roots / shoots)” value is recorded as “induced root formation”; the “reproduction rate / organogenic response” value is given as “did not have a significant effect on the reproduction rate”; the “survival of explants compared with the control treatment” value was “Neither the addition of AIB or BAP, nor the combination of these growth regulators, significantly increased the survival”; the biomass production result is recorded as “increased significantly”.
Take `c1ccc(CNc2ncnc3nc[nH]c23)cc1` [BAP, 6-benzylaminopurine]: in data set [1], the “type of morphogenic response (roots / shoots)” value was “induced only shoot formation or the development of aerial biomass”; the “reproduction rate / organogenic response” value is listed as “sufficient to induce efficient organogenic responses”; the “survival of explants compared with the control treatment” value is given as “Neither the addition of AIB or BAP, nor the combination of these growth regulators, significantly increased the survival”; the biomass production entry is given as “increased significantly”.
Regarding `C=C1C[C@]23C[C@@]1(O)CC[C@H]2[C@@]12C=C[C@H](O)[C@@](C)(C(=O)O1)[C@H]2[C@@H]3C(=O)O` [GA3, gibberellic acid], in data set [1], the “reproduction rate / organogenic response” value is on record as “significantly reduced the reproduction rate” and the “survival of explants compared with the control treatment” value is “significantly lower than the control treatment”.
With `O=C[C@H](O)[C@@H](O)[C@H](O)[C@H](O)CO` [glucose], in data set [2], the fresh weight entry is listed as “increased significantly” and the “degree of oxidation (scale of Table 1)” value is on record as “degree 1”. Further, in data set [2] (glucose at 5 gL−1, temporary immersion bioreactors), the survival rate was found to be 100%. For the same compound, in data set [2] (glucose concentration increased to 20 gL-1), the “reduction of the explants' survival rate” value was “up to 50%”. In addition, in data set [2] (increased concentrations of glucose), the “explants' growth” value is on record as “did not significantly affect the explants' growth”. Moreover, the reproduction rate entry in data set [3] is reported as “greatest”.
With `OC[C@@H](O)[C@@H](O)[C@H](O)[C@H](O)CO` [mannitol], the “degree of oxidation (scale of Table 1)” value in data set [2] is reported as “degree 1”. For the same compound, in data set [3], the reproduction rate entry is listed as “statistically different from the control treatment”.
`[Cl-].[Na+]` [sodium chloride]: the fresh weight entry in data set [2] was “increased significantly”. Further, in data set [2] (increased concentration of sodium chloride (FIG. 5)), the “decrease of fresh weight” value turned out to be 60%. Further, the “survival of the explants” value in data set [2] (three concentrations of sodium chloride studied (5, 10, 20 gL-1)) is reported as “significantly affected the survival of the explants”.

These data come from US9426950B2, “Production of Deschampsia antartica in bioreactors” (priority 2012, dated 2016).
